# According to patent publication US20240398757A1 (COCRYSTAL PHARMA, INC., priority 2022, published 2024):
# Target: T1, SARS2 protease (Severe acute respiratory syndrome coronavirus 2, UniProt P0DTD1)
# T1 construct: SARS2 protease was added to a final concentration of 30 nM
# Test: SARS-CoV-2 protease inhibition assay (SARS2 FRET protease assay)
# Format: biochemical
# Conditions: IC50 (μM), SARS2 protease 30 nM, peptide substrate 1.3 μM, 120 minutes at 37° C., compounds 20 μM to 0.075 nM
row,Structure (SMILES),IC50 [µM]
1,"CCCC[C@H](NC(=O)OC(c1ccccc1)C(F)(F)c1cccc(F)c1)C(=O)N[C@@H](CC1CCNC1=O)C(=O)C(=O)NCC (stereo in doubt) [Compound A173, 2,2-difluoro-2-(3-fluorophenyl)-1-phenylethyl ((S)-1-(((S)-4-(ethylamino)-3,4-dioxo-1-((S)-2-oxopyrrolidin-3-yl)butan-2-yl)amino)-1-oxohexan-2-yl)carbamate]",0.0386
2,CC(C)C[C@H](NC(=O)OC(c1ccc(F)cc1)C(F)(F)c1cccc(Cl)c1)C(=O)N[C@H](C=O)C[C@@H]1CCNC1=O (some centres unmarked) [Compound A1],0.0001
3,CC(C)C[C@H](NC(=O)OC(c1ccccc1)C(F)(F)c1cccc(F)c1)C(=O)N[C@H](C=O)C[C@@H]1CCNC1=O (some centres unmarked) [Compound A2],0.004
4,CC(C)C[C@H](NC(=O)OC(c1ccccc1)C1(c2cccc(Cl)c2)CCCCC1)C(=O)N[C@@H](C[C@@H]1CCNC1=O)C(=O)C(=O)NC1CC1 (some centres unmarked) [Compound A3],0.52
5,CC(C)C[C@H](NC(=O)O[C@@H](c1ccccc1)C(C)(C)c1cccc(Cl)c1)C(=O)N[C@@H](C[C@@H]1CCNC1=O)C(=O)C(=O)NC1CC1 [Compound A4],0.8
6,CC(C)C[C@H](NC(=O)O[C@H](c1ccccc1)C(C)(C)c1cccc(Cl)c1)C(=O)N[C@@H](C[C@@H]1CCNC1=O)C(=O)C(=O)NC1CC1 [Compound A5],2.79
7,CCC(CC)(c1cccc(Cl)c1)C(OC(=O)N[C@@H](CC(C)C)C(=O)N[C@@H](C[C@@H]1CCNC1=O)C(=O)C(=O)NC1CC1)c1ccccc1 (some centres unmarked) [Compound A6],0.24
8,CC(C)C[C@H](NC(=O)OC(c1cccc(Cl)c1)C1(c2cccc(Cl)c2)CCC1)C(=O)N[C@H](C=O)C[C@@H]1CCNC1=O (some centres unmarked) [Compound A7],0.12
9,CCCCCOC(=O)N[C@@H](CC(C)C)C(=O)N[C@@H](C[C@@H]1CCNC1=O)C(=O)C(=O)NC1CCN(C)CC1 [Compound A8],15
10,CC(C)C[C@H](NC(=O)O[C@H](c1ccc(F)cc1)C(F)(F)c1cccc(Cl)c1)C(=O)N[C@@H](C[C@@H]1CCNC1=O)C(=O)C(=O)NC1CC1 [Compound A9],0.0001
11,CC(C)C[C@H](NC(=O)OC(c1ccccc1)C(F)(F)c1cccc(F)c1)C(=O)N[C@@H](C[C@@H]1CCNC1=O)C(=O)C(=O)NC1CC1 (some centres unmarked) [Compound A10],0.005
12,CC(C)C[C@H](NC(=O)OC(c1cccc(F)c1)C(C)(C)c1cccc(Cl)c1)C(=O)N[C@H](C=O)C[C@@H]1CCNC1=O (some centres unmarked) [Compound A11],0.0001
13,CCCCCOC(=O)N[C@@H](CC(C)C)C(=O)N[C@@H](C[C@@H]1CCNC1=O)C(=O)C(=O)NC1CC1 [Compound A12],0.876
14,CCCCCOC(=O)N[C@@H](CC(C)C)C(=O)N[C@H](C=O)C[C@@H]1CCNC1=O [Compound A13],0.08
15,CCC(CC)(c1cccc(Cl)c1)C(OC(=O)N[C@@H](CC(C)C)C(=O)N[C@@H](C[C@@H]1CCNC1=O)C(=O)C(=O)NC1CC1)c1ccc(F)cc1 (some centres unmarked) [Compound A14],0.09
16,CC(C)C[C@H](NC(=O)O[C@H](c1cccc(F)c1)C(C)(C)c1cccc(Cl)c1)C(=O)N[C@@H](C[C@@H]1CCNC1=O)C(=O)C(=O)NC1CC1 [Compound A15],0.31
17,CC(C)C[C@H](NC(=O)OC(c1cccc(Cl)c1)C1(c2cccc(Cl)c2)CCC1)C(=O)N[C@@H](C[C@@H]1CCNC1=O)C(=O)C(=O)NC1CC1 (some centres unmarked) [Compound A16],0.38
18,CCN1CCC(NC(=O)C(=O)[C@H](C[C@@H]2CCNC2=O)NC(=O)[C@H](CC(C)C)NC(=O)OC(c2ccccc2)C(CC)(CC)c2cccc(Cl)c2)CC1 (some centres unmarked) [Compound A17],30.3
19,CCC(CC)(c1cccc(Cl)c1)C(OC(=O)N[C@@H](CC(C)C)C(=O)N[C@H](C=O)C[C@@H]1CCNC1=O)c1ccc(F)c(F)c1 (some centres unmarked) [Compound A18],0.01
20,CCCCC[C@H](NC(=O)OC(c1ccccc1)C(F)(F)c1cccc(Cl)c1)C(=O)N[C@H](C=O)C[C@@H]1CCNC1=O (some centres unmarked) [Compound A19],0.007
21,O=C[C@H](C[C@@H]1CCNC1=O)NC(=O)[C@H](CC1CCCCC1)NC(=O)OC(c1ccccc1)C(F)(F)c1cccc(Cl)c1 (some centres unmarked) [Compound A20],0.0003
22,O=C(N[C@@H](CC1CCCCC1)C(=O)N[C@@H](C[C@@H]1CCNC1=O)C(=O)C(=O)NC1CC1)OC(c1ccccc1)C(F)(F)c1cccc(Cl)c1 (some centres unmarked) [Compound A21],0.06
23,CCC(CC)(c1cccc(Cl)c1)C(OC(=O)N[C@@H](CC(C)C)C(=O)N[C@@H](C[C@@H]1CCNC1=O)C(=O)C(=O)NC1CC1)c1ccc(F)c(F)c1 (some centres unmarked) [Compound A22],0.32
24,CCCCCOC(=O)N[C@@H](CC(C)C)C(=O)N[C@@H](C[C@@H]1CCNC1=O)C(=O)C(=O)NC1CCCCC1 [Compound A24],21.4
25,CC(C)C[C@H](NC(=O)O[C@H](c1cccc(Cl)c1)C1(c2cccc(Cl)c2)CC1)C(=O)N[C@@H](C[C@@H]1CCNC1=O)C(=O)C(=O)NC1CC1 [Compound A30],0.1
26,CC(C)C[C@H](NC(=O)O[C@@H](c1cccc(Cl)c1)C1(c2cccc(Cl)c2)CC1)C(=O)N[C@@H](C[C@@H]1CCNC1=O)C(=O)C(=O)NC1CC1 [Compound A31],0.007
27,CCN1CCC(NC(=O)C(=O)[C@H](C[C@@H]2CCNC2=O)NC(=O)[C@H](CC(C)C)NC(=O)OC(c2ccc(F)cc2)C(CC)(CC)c2cccc(Cl)c2)CC1 (some centres unmarked) [Compound A32],10.1

row,Structure (SMILES),IC50 [µM]
1,CCCCC[C@H](NC(=O)O[C@@H](c1ccccc1)C(F)(F)c1cccc(Cl)c1)C(=O)N[C@@H](C[C@@H]1CCNC1=O)C(=O)C(=O)NC1CC1 [Compound A33],0.3
2,CC(C)(c1cccc(F)c1)C(OC(=O)N[C@@H](CC1CCCCC1)C(=O)N[C@H](C=O)C[C@@H]1CCNC1=O)c1ccccc1 (some centres unmarked) [Compound A34],0.0001
3,CCC(CC)(c1cccc(Cl)c1)C(OC(=O)N[C@@H](CC(C)C)C(=O)N[C@@H](C[C@@H]1CCNC1=O)C(=O)C(=O)NC1CC1)c1cccc(Cl)c1 (some centres unmarked) [Compound A35],1.07
4,CC(C)C[C@H](NC(=O)OC(c1ccc(Cl)cc1)C1(c2cccc(Cl)c2)CCCCC1)C(=O)N[C@@H](C[C@@H]1CCNC1=O)C(=O)C(=O)NC1CC1 (some centres unmarked) [Compound A36],1.15
5,CCCC[C@H](NC(=O)OC(c1ccccc1)C(C)(C)c1cccc(F)c1)C(=O)N[C@H](C=O)C[C@@H]1CCNC1=O (some centres unmarked) [Compound A37],0.91
6,CC(C)C[C@H](NC(=O)O[C@H](c1cccc(Cl)c1)C1(c2cccc(Cl)c2)CC1)C(=O)N[C@H](C=O)C[C@@H]1CCNC1=O [Compound A38],0.0034
7,CC(C)C[C@H](NC(=O)OC(c1ccccc1)C(C)(C)c1cccc(F)c1)C(=O)NC(C)(C=O)C[C@@H]1CCNC1=O (some centres unmarked) [Compound A39],2.3
8,CCCC[C@H](NC(=O)OC(c1ccccc1)C1(c2cccc(F)c2)CC1)C(=O)N[C@H](C=O)C[C@@H]1CCNC1=O (some centres unmarked) [Compound A40],0.003
9,CC(C)C[C@H](NC(=O)OC(c1ccccc1)C(F)(F)c1cccc(Cl)c1)C(=O)N[C@H](C#N)C[C@@H]1CCNC1=O (some centres unmarked) [Compound A41],2.29
10,CC(C)C[C@H](NC(=O)OC(c1ccccc1)C(C)(C)c1cccc(Cl)c1)C(=O)N[C@H](C=O)C[C@@H]1CCCNC1=O (some centres unmarked) [Compound A42],0.009
11,CCCC[C@H](NC(=O)OC(c1ccccc1)C(C)(C)c1cccc(F)c1)C(=O)N[C@@H](C[C@@H]1CCNC1=O)C(=O)C(=O)NC1CC1 (some centres unmarked) [Compound A43],0.26
12,CCC(CC)(c1cccc(Cl)c1)C(OC(=O)N[C@@H](CC(C)C)C(=O)N[C@@H](C[C@@H]1CCNC1=O)C(=O)C(=O)NC1CC1)c1ccc(Cl)cc1 (some centres unmarked) [Compound A44],0.74
13,CC(C)C[C@H](NC(=O)O[C@H](c1ccc(Cl)cc1)C1(c2cccc(Cl)c2)CC1)C(=O)N[C@H](C=O)C[C@@H]1CCNC1=O [Compound A45],0.02
14,CCC(CC)(c1cccc(Cl)c1)C(OC(=O)N[C@@H](CC(C)C)C(=O)N[C@H](C=O)C[C@@H]1CCNC1=O)c1ccc(Cl)cc1 (some centres unmarked) [Compound A46],1.74
15,CC(C)(c1cccc(F)c1)C(OC(=O)N[C@@H](CC1CCCCC1)C(=O)N[C@@H](C[C@@H]1CCNC1=O)C(=O)C(=O)NC1CC1)c1ccccc1 (some centres unmarked) [Compound A47],0.62
16,CC(C)C[C@H](NC(=O)OC(c1ccc(Cl)cc1)C1(c2cccc(Cl)c2)CCCCC1)C(=O)N[C@H](C=O)C[C@@H]1CCNC1=O (some centres unmarked) [Compound A49],0.38
17,CCNC(=O)C(=O)[C@H](C[C@@H]1CCNC1=O)NC(=O)[C@H](CC1CCCCC1)NC(=O)OC(c1ccccc1)C(F)(F)c1cccc(Cl)c1 (some centres unmarked) [Compound A50],0.01
18,CCCC[C@H](NC(=O)OC(c1ccccc1)C(F)(F)c1cccc(Cl)c1)C(=O)N[C@@H](C[C@@H]1CCNC1=O)C(=O)C(=O)NC1CC1 (some centres unmarked) [Compound A51],0.13
19,CC(C)C[C@H](NC(=O)OC(c1ccccc1)C1(c2cccc(Cl)c2)CCNCC1)C(=O)N[C@@H](C[C@@H]1CCNC1=O)C(=O)C(=O)NC1CC1 (some centres unmarked) [Compound A52],1.42
20,CC(C)C[C@H](NC(=O)O[C@@H](c1cccc(Cl)c1)C1(c2cccc(Cl)c2)CCCCC1)C(=O)N[C@H](C=O)C[C@@H]1CCNC1=O [Compound A54],0.14
21,CCCC[C@H](NC(=O)OC(c1ccc(F)cc1)C(F)(F)c1cccc(F)c1)C(=O)N[C@H](C=O)C[C@@H]1CCNC1=O (some centres unmarked) [Compound A55],0.01
22,CCCC[C@H](NC(=O)OC(c1ccccc1)C1(c2cccc(F)c2)CC1)C(=O)N[C@@H](C[C@@H]1CCNC1=O)C(=O)C(=O)NC1CC1 (some centres unmarked) [Compound A56],0.56
23,CC(C)C[C@H](NC(=O)OC(c1ccccc1)C(C)(C)c1cccc(Cl)c1)C(=O)N[C@@H](C[C@@H]1CCCNC1=O)C(=O)C(=O)NC1CC1 (some centres unmarked) [Compound A57],1.13
24,CCCC[C@H](NC(=O)OC(c1ccc(F)cc1)C(F)(F)c1cccc(F)c1)C(=O)N[C@@H](C[C@@H]1CCNC1=O)C(=O)C(=O)NC1CC1 (some centres unmarked) [Compound A58],0.16
25,CC(C)C[C@H]1C(=O)N[C@H](C[C@@H]2CCNC2=O)[C@H](O)N1C(=O)OC(c1ccccc1)C1(c2cccc(Cl)c2)CCNCC1 (some centres unmarked) [Compound A59],16.1
26,CC(C)C[C@H](NC(=O)O[C@H](c1ccc(Cl)cc1)C1(c2cccc(Cl)c2)CC1)C(=O)N[C@@H](C[C@@H]1CCNC1=O)C(=O)C(=O)NC1CC1 [Compound A60],1.91
